Experimental data as given in patent publication US20260008746A1, “CATIONIC LIPID COMPOUND WITH HIGH EFFICIENCY, LOW TOXICITY AND STABLE EXPRESSION, AND COMPOSITION COMPRISNG SAME” (HANGZHOU TIANLONG PHARMACEUTICAL CO., LTD, priority 2023, published 2026).

Tests used:
293T cells [1] = assay: Fluorescent detection of Fluc-mRNA (cell transfection efficiency of LNP formulations); format: cell-based; conditions: for Relative light unit (RLU): LNP formulation containing 0.3 μg Fluc-mRNA, 96-well plate, 24 hours; for Multiples (YK-101): RLU of YK-101 / RLU of named substance; for Multiples (YK-108): RLU of YK-108 / RLU of named substance; for Ratio relative to SM-102: RLU of named substance / RLU of SM-102; for Multiples (YK-107): RLU of YK-107 / RLU of named substance
Protocol: (§1) Cell recovery and passage: 293T cells were recovered, cultured in a culture dish, and passaged to the required number of cells.
(§2) Seeding plate: The cells in the culture dish were digested and counted. Cells were spread in a 96-well plate at 10,000 cells per well and in a 12-well plate at 150,000 cells per well. Cells were cultured overnight until the cells adhered to the wall.
Cell recovery and passage: the method was the same as in Example 3.
Seeding plate: the method was the same as in Example 3.
An LNP formulation containing 0.3 μg of Fluc-mRNA (the carrier components of the LNP formulation were cationic lipid, neutral lipid, structured lipid and polymer-conjugated lipid with a molar ratio of 49:10:39.5:1.5, wherein the cationic lipid was listed in Table 1) was added to the cell culture medium of a 96-well plate, and further incubated for 24 hours. The corresponding reagent was added according to the instructions of the Gaussia Luciferase Assay Kit, and the fluorescence expression intensity of each well was detected by an IVIS fluorescence detection system. This test verified the transfection efficiencies of LNP formulations in cells, see Tables 3-6 for specific test results.

293T cells [2] = assay: Cell survival rate determination (CCK-8); format: cell-based; conditions: for Cell survival rate (%): LNP formulation containing 1.5 μg Fluc-mRNA, 24 hours, CCK-8, absorbance at 450 nm; for cell survival rate lower than that of YK-101: cell survival rate of YK-101 minus that of named substance; for cell survival rate lower than that of YK-107: cell survival rate of YK-107 minus that of named substance; for cell survival rate lower than that of YK-108: cell survival rate of YK-108 minus that of named substance
Protocol: as §1, §2
An LNP formulation containing 1.5 μg of Fluc-mRNA (the cater component of the LNP formulation were cationic lipid, neutral lipid, structured lipid and polymer-conjugated lipid with a molar ratio of 49: 10: 39.5: 1.5, wherein the cationic lipid was listed in Table 1) and the formulation of Lipofectamine 3000 were added to the cell culture medium of a 96-well plate, and further cultivated for 24 hours. 10 μL of CCK-8 solution was then added to each well, and the culture plate was incubated in an incubator for 1 hour. The absorbance at 450 nm was measured by a microplate reader.

BALB/C mice = assay: In vivo imaging of Fluc-mRNA expression in mice delivered by LNP formulations; conditions: for average radiation intensity, 6 h / average radiation intensity, 24 h / average radiation intensity, 48 h / average radiation intensity, 7 d: LNP containing 10 pg Fluc-mRNA, intramuscular, female BALB/C mice
Protocol: The LNP formulation containing […] Fluc-mRNA was injected intramuscularly into female BALB/C mice aged 4-6 weeks old and weighed 17-19 g, and the mice were intraperitoneally injected with fluorescent imaging substrate at specific time points after administration (6h, 24 h, 48h and 7d), where the mice were allowed to move freely for 5 minutes, and then the average radiation intensity (corresponding to fluorescence expression intensity) of the protein expression of the mRNA carried by the LNP in the mice was detected by the IVIS Spectrum small animal in vivo imaging device. The test results are shown in Tables 11 to 14 and FIGS. 12 to 14.

[3] = highest multiple, time point not stated

CCCCCCCCCCOC(=O)CCCN(CCCO)CCCCCC(=O)OCCC(CCCCCC)CCCCCC [YK-102, 3-hexylnonyl-6-(4-(decyloxy)-4-oxobutyl)((3-hydroxypropyl)amino)hexanoate]
Relative light unit (RLU) (293T cells [1]): 1464032 RLU
Multiples (YK-101) (293T cells [1]): 13.89
Multiples (YK-108) (293T cells [1]): 16.84
Ratio relative to SM-102 (293T cells [1]): 0.95
Cell survival rate (%) (293T cells [2]): 51.82%
cell survival rate lower than that of YK-101 (293T cells [2]): 38.30%
cell survival rate lower than that of YK-107 (293T cells [2]): 38.63%
cell survival rate lower than that of YK-108 (293T cells [2]): 38.04%
average radiation intensity of YK-101, times that of named substance (BALB/C mice; 6 h): 2.3 times
average radiation intensity of YK-107, times that of named substance (BALB/C mice; 6 h): 2.5 times
average radiation intensity of YK-108, times that of named substance (BALB/C mice; 6 h): 3.1 times
average radiation intensity of YK-101, times that of named substance (BALB/C mice; 24 h): 10.5 times
average radiation intensity of YK-107, times that of named substance (BALB/C mice; 24 h): 13.0 times
average radiation intensity of YK-108, times that of named substance (BALB/C mice; 24 h): 14.0 times
average radiation intensity of YK-101, times that of named substance (BALB/C mice; 48 h): 6.1 times
average radiation intensity of YK-107, times that of named substance (BALB/C mice; 48 h): 7.4 times
average radiation intensity of YK-108, times that of named substance (BALB/C mice; 48 h): 7.6 times
average radiation intensity of YK-101, times that of named substance (BALB/C mice; 7 d): 1.9 times
average radiation intensity of YK-107, times that of named substance (BALB/C mice; 7 d): 2.1 times
average radiation intensity of YK-108, times that of named substance (BALB/C mice; 7 d): 2.2 times
average radiation intensity, 6 h (BALB/C mice; 6 h): 652680
average radiation intensity, 24 h (BALB/C mice; 24 h): 100422
average radiation intensity, 48 h (BALB/C mice; 48 h): 30507
average radiation intensity, 7 d (BALB/C mice; 7 d): 6477

CCCCCCCCCCCOC(=O)CCCN(CCO)CCCCCCC(=O)OCCC(CCCCCC)CCCCCC [YK-108, 3-hexylnonyl 7-(4-(undecyloxy)-4-oxobutyl)((2-hydroxyethyl)amino)heptanoate]
Relative light unit (RLU) (293T cells [1]): 24660507 RLU
Multiples (YK-101) (293T cells [1]): 0.82
Multiples (YK-107) (293T cells [1]): 0.91
Multiples (YK-108) (293T cells [1]): 1.00
Ratio relative to SM-102 (293T cells [1]): 16.07
Cell survival rate (%) (293T cells [2]): 89.86%
average radiation intensity, 6 h (BALB/C mice; 6 h): 2017280
average radiation intensity, 24 h (BALB/C mice; 24 h): 1406010
average radiation intensity, 48 h (BALB/C mice; 48 h): 230360
average radiation intensity, 7 d (BALB/C mice; 7 d): 14194

CCCCCCCCCCOC(=O)CCCN(CCCCCC(=O)OCCC(CCCCCC)CCCCCC)CC(O)CO (centres unmarked) [YK-114, 3-hexylnonyl 6-(4-(decyloxy)-4-oxobutyl)((2,3-dihydroxypropyl)amino)hexanoate]
Relative light unit (RLU) (293T cells [1]): 1418926 RLU
Multiples (YK-101) (293T cells [1]): 14.33
Multiples (YK-107) (293T cells [1]): 15.76
Multiples (YK-108) (293T cells [1]): 17.38
fluorescence absorption value, times that of HHMA (293T cells [1]; RLU of named substance / RLU of HHMA): 0.69 times
fluorescence absorption value, times that of Lipofectamine 3000 (293T cells [1]; RLU of named substance / RLU of Lipofectamine 3000): 1.32 times
Ratio relative to SM-102 (293T cells [1]): 0.92
Fluc-mRNA expression signal intensity, times that of compound 21 (293T cells [1]; RLU of named substance / RLU of compound 21): 1.02 times
fluorescence absorption value, times that of compound 23 (293T cells [1]; RLU of named substance / RLU of compound 23): 1.10 times
Cell survival rate (%) (293T cells [2]): 68.33%
cell survival rate lower than that of YK-101 (293T cells [2]): 21.79%
cell survival rate lower than that of YK-107 (293T cells [2]): 22.12%
cell survival rate lower than that of YK-108 (293T cells [2]): 21.53%
average radiation intensity of YK-101, times that of named substance (BALB/C mice; 6 h): 2.8 times
average radiation intensity of YK-107, times that of named substance (BALB/C mice; 6 h): 3.0 times
average radiation intensity of YK-108, times that of named substance (BALB/C mice; 6 h): 3.8 times
average radiation intensity of YK-101, times that of named substance (BALB/C mice; 24 h): 11.3 times
average radiation intensity of YK-107, times that of named substance (BALB/C mice; 24 h): 13.9 times
average radiation intensity of YK-108, times that of named substance (BALB/C mice; 24 h): 15.0 times
average radiation intensity of YK-101, times that of named substance (BALB/C mice; 48 h): 9.8 times
average radiation intensity of YK-107, times that of named substance (BALB/C mice; 48 h): 11.9 times
average radiation intensity of YK-108, times that of named substance (BALB/C mice; 48 h): 12.1 times
average radiation intensity of YK-101, times that of named substance (BALB/C mice; 7 d): 2.2 times
average radiation intensity of YK-107, times that of named substance (BALB/C mice; 7 d): 2.4 times
average radiation intensity of YK-108, times that of named substance (BALB/C mice; 7 d): 2.6 times
average radiation intensity, 6 h (BALB/C mice; 6 h): 535760
average radiation intensity, 24 h (BALB/C mice; 24 h): 93565
average radiation intensity, 48 h (BALB/C mice; 48 h): 19004
average radiation intensity, 7 d (BALB/C mice; 7 d): 5457
expression amount of mRNA in mice of YK-101, times that of named substance (BALB/C mice; [3]): up to 11 times
expression amount of mRNA in mice of YK-107, times that of named substance (BALB/C mice; [3]): ≤ 13 times
